# US20250032506A1, “GLUCOCORTICOID RECEPTOR BLOCKADE WITH MIFEPRISTONE TO SENSITIZE PANCREATIC CANCER TO IMMUNOTHERAPY” (BOARD OF REGENTS, THE UNIVERSITY OF TEXAS SYSTEM, priority 2021, published 2025)
# What was measured:
# [1] = system: orthotopic HY24409 tumors; test: Orthotopic HY24409 pancreatic tumors in C57BL/6 mice; format: in vivo, mouse
# Description: (§1) Orthotopic pancreatic tumor size was determined by MRI. Subcutaneous tumor size was measured with a caliper. […] Animal body weight was measured throughout the study.
# GR = GR (Homo sapiens, UniProt P04150); settings: ChIP-qPCR; co-treatment with mifepristone 100 nM and dexamethasone 100 nM, 30 min; SU86.86
# Description: SU86.86 cells were grown to 40% confluence in 15-cm dishes in RPMI with 10% FBS, followed by 72-hour incubation in phenol red-free RPMI supplemented with 5% charcoal-stripped FBS. […] Cells were cross-linked with 1% formaldehyde, quenched with glycine, and harvested. After cell lysis with ChIP lysis buffer, cells were digested with Micrococcal Nuclease and sonicated to achieve the majority of DNA fragments between 200 bp and 500 bp. […] Chromatin was eluted from GR ChIP following the manufacturer's protocol.
# HY24409 cells [2] = test: qPCR and flow cytometry of PD-L1, MHC-I and B2M in HY24409 cells; format: cell-based, mouse; settings: MIFE 20 μM, 48 h
# Description: (§2) (See Bardeesy, N., et al. supra). The human PDAC cell lines SU86.86 ([…]), SW1990 ([…]), BXPC-3 ([…]), Miapaca-2 ([…]), Capan-1 ([…]), ASPC-1 ([…]), Hs766T ([…]), Colo357/FG ([…]), L3.6PL ([…]), Panc28 ([…]), Capan-2 ([…]), CF-Pac-1 ([…]), Panc3 (sex unknown), Panc1 ([…]), Panc48 (sex unknown), and HPAC ([…]) were from Mien-Chie Hung's lab stock. […] The BXPC-3, Miapaca-2, Capan-1, ASPC-1, Colo357/FG, L3.6PL, Panc28, Capan-2, CF-Pac-1, Panc3, Panc1, Panc48, and HPAC cell lines were cultured in DMEM/F-12 (Corning, 10-092-CV) supplemented with 10% FBS and 1% penicillin/streptomycin. Cells were grown in a humidified incubator with 5% CO2 at 37° C., and low-passage stocks were maintained in a centralized lab cell bank. Short tandem repeat profiling and mycoplasma tests were done by the Cytogenetics and Cell Authentication Core at MD Anderson Cancer Center.
# HY19636 cells = test: qPCR and flow cytometry of PD-L1, MHC-I and B2M in HY19636 cells; format: cell-based, mouse; settings: MIFE 20 μM, 48 h
# Description: The male PDAC cell lines HY24409 and HY24160 and the female PDAC cell line HY19636 were established from KPC mice (p48-Cre; Kras^LSL-G12D/+; Trp53^loxP/+) that were backcrossed to a C57BL/6 background (purity: ˜ 98%). (See Bardeesy, N., et al. supra). The human PDAC cell lines SU86.86 ([…]), SW1990 ([…]), BXPC-3 ([…]), Miapaca-2 ([…]), Capan-1 ([…]), ASPC-1 ([…]), Hs766T ([…]), Colo357/FG ([…]), L3.6PL ([…]), Panc28 ([…]), Capan-2 ([…]), CF-Pac-1 ([…]), Panc3 (sex unknown), Panc1 ([…]), Panc48 (sex unknown), and HPAC ([…]) were from Mien-Chie Hung's lab stock. The HY24409, HY24160, HY19636, SU86.86, SW1990, and Hs766T cell lines were cultured in RPMI 1640 (Corning, 10-041-CV) supplemented with 10% fetal bovine serum (FBS) (Gibco, 10438-034) and 1% penicillin/streptomycin (Sigma, P4333). The BXPC-3, Miapaca-2, Capan-1, ASPC-1, Colo357/FG, L3.6PL, Panc28, Capan-2, CF-Pac-1, Panc3, Panc1, Panc48, and HPAC cell lines were cultured in DMEM/F-12 (Corning, 10-092-CV) supplemented with 10% FBS and 1% penicillin/streptomycin. Cells were grown in a humidified incubator with 5% CO2 at 37° C., and low-passage stocks were maintained in a centralized lab cell bank. Short tandem repeat profiling and mycoplasma tests were done by the Cytogenetics and Cell Authentication Core at MD Anderson Cancer Center.
# (§3) Immunity 54, 1561-1577 e1567 (2021).
# [3] = system: orthotopic HY19636 tumors; test: Female C57BL/6 mice bearing orthotopic HY19636 tumors; format: in vivo, mouse
# Description: as §1
# [4] = system: orthotopic HY24409 tumors; test: CyTOF, flow cytometry, qPCR and multiplex immunofluorescent staining of orthotopic HY24409 tumors; format: in vivo, mouse
# Description: Cancer Discov 10, 1374-1387 (2020). […] CyTOF data were analyzed by FlowJo and Cytobank.
# as §3
# [5] = system: tumors formed by KPC cell lines (HY24409, HY24160); test: Tumor growth in immunodeficient NSG mice implanted with KPC cell lines; format: in vivo, mouse; settings: mifepristone oral gavage 60 mg kg-1, twice every 3 days
# Description: as §1
# SU86.86 cells = test: qPCR, immunoblotting and flow cytometry of PD-L1 and MHC-I pathway expression in SU86.86 cells; format: cell-based, human
# Description: as §2
# Membranes were blocked with 10% non-fat milk in TBST and incubated with the primary antibody at 4° C. overnight, followed by incubation with the secondary antibody conjugated with horseradish peroxidase (HRP).
# HY24409 cells [6] = test: Chemokine array of conditioned medium; format: cell-based, mouse; settings: mifepristone 20 μM, 48 hours
# Description: Chemokine array was performed with conditioned medium from HY24409 cells treated with vehicle or mifepristone (20 μM, 48 hours) using the Proteome Profiler Mouse Chemokine Array Kit (R&D system, ARY020) following the manufacturer's instructions.
# [7] = CyTOF, orthotopic HY24409 tumors, vs vehicle or control shRNA
# [8] = flow cytometric analysis, HY24409 tumors
# Sequence of GR (P04150 whole entry, the tested form may be a part): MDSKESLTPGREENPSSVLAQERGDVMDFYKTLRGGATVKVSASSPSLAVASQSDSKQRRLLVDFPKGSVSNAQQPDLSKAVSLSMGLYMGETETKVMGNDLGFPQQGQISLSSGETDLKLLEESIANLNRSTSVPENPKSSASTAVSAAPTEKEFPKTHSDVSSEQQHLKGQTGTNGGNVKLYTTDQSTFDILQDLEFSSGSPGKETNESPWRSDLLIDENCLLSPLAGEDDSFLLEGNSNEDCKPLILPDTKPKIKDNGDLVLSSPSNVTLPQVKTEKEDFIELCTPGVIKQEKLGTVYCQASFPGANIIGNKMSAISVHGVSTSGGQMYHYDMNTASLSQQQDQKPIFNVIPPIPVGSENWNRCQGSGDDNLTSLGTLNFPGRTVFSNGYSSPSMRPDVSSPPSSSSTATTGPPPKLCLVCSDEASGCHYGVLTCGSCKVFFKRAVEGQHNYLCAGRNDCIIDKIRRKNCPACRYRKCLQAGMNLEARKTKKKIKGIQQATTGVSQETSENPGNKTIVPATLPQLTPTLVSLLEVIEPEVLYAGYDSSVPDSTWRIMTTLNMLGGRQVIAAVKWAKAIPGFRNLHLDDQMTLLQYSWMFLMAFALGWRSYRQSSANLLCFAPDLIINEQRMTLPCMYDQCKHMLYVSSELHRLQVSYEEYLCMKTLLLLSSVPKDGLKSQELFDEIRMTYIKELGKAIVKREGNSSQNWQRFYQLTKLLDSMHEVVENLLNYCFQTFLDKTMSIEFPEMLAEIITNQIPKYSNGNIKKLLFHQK
structure (smiles),measurement,setting,value
CC#C[C@]1(O)CC[C@H]2[C@@H]3CCC4=CC(=O)CCC4=C3[C@@H](c3ccc(N(C)C)cc3)C[C@@]21C [mifepristone],body weight,"[1]; C57BL/6 mice bearing orthotopic HY24409 tumors, mifepristone 60 mg kg-1",without significant loss of body weight
same,orthotopic pancreatic tumor volume (magnetic resonance imaging) and weight,"[1]; C57BL/6 mice, HY24409, mifepristone oral gavage 60 mg kg-1, twice every 3 days",substantial reductions
same,tumor growth inhibition upon antibody-mediated depletion of CD8+ T cells,"[1]; C57BL/6 mice, orthotopic HY24409, mifepristone plus anti-CD8 antibody",abolished
same,reduction in tumor weight at the endpoint,"[1]; C57BL/6 mice, orthotopic HY24409, vs vehicle or control shRNA",67.7%
same,dexamethasone-induced binding of promoter sites to GR,GR,reversed
same,surface PD-L1 levels,HY24409 cells [2]; flow cytometry,decreased
same,surface protein levels of MHC-I (H-2K^b) and B2M,HY24409 cells [2]; flow cytometry,increased
same,MHC-I and B2M mRNA levels,HY24409 cells [2]; qPCR,increase
same,PD-L1 mRNA levels,HY24409 cells [2]; qPCR,decrease
same,MHC-I and B2M at mRNA and surface protein levels,HY19636 cells,upregulated
same,PD-L1 at mRNA and surface protein levels,HY19636 cells,downregulated
same,body weight,[3],without reducing body weight
same,tumor growth,[3],markedly inhibited tumor growth
same,sensitivity of tumors to dual ICB,[3]; mifepristone with dual ICB,rendered sensitivity to dual ICB
same,"abundance of CD4+ T cells, regulatory T cells, natural killer cells, B cells, dendritic cells, macrophages, and myeloid-derived suppressor cells","[4]; CyTOF, orthotopic HY24409 tumors",No significant change
same,increase in percentage of granzyme B+ CTLs,[4]; [7],1.6 fold
same,increase in percentage of tumor-infiltrating CD8+ cells,[4]; [7],1.9 fold
same,cell-surface MHC-I (H-2K^b) and B2M levels in pancreatic tumors,[4]; [8],higher
same,cell-surface PD-L1 levels in pancreatic tumors,[4]; [8],lower
same,"expression levels of intracellular TNFα, IFNγ, and IL-2 in tumor-associated CD8+ cells","[4]; flow cytometry after ex vivo stimulation with PMA and ionomycin, HY24409 tumors",significantly increased
same,"surface levels of T cell exhaustion markers PD-1, Tim-3, and LAG-3","[4]; flow cytometry, CTLs in HY24409 pancreatic tumors",significant reduction
same,"multiplex immunofluorescent staining of CD3, CD8, and granzyme B in pancreatic tumors","[4]; mifepristone-treated C57BL/6 mice, HY24409",substantial enrichment
same,"mRNA levels of MHC-I components (H-2k, H-2d, and B2m) in tumors","[4]; qPCR, HY24409 tumors",upregulated
same,"mRNA levels of PD-L1 and known GR-activated target genes (Klf9, Snai2, and Fn1) in tumors","[4]; qPCR, HY24409 tumors",downregulated
same,growth of tumors formed by KPC cell lines,[5],neither mifepristone treatment (FIGS. 11A-11J) nor shRNA-mediated GR knockdown (FIGS. 11K-11N) affected the growth of tumors
same,PD-L1 protein,"SU86.86 cells; Western blot and flow cytometric analysis, MIFE 72 h",downregulated
same,MHC-I and B2M proteins,"SU86.86 cells; Western blot and flow cytometry, MIFE 72 h",upregulation
same,"mRNA levels of components in the MHC-I pathway, including HLA-A, HLA-B, HLA-C, B2M, SEC61B, and SEC61G","SU86.86 cells; qPCR, MIFE 20 μM, 72 h",increased
same,"mRNA levels of immune checkpoint ligands, including PD-L1, CD47, TDO, and SIGLEC15","SU86.86 cells; qPCR, MIFE 20 μM, 72 h",decreased
same,chemokines secreted by HY24409 cells,HY24409 cells [6],no chemokines that showed a change after mifepristone treatment were found
